Laboratory results reported in patent US20080108676A1, “Benzothiazolecarboxamides” (New Benzothiazolecarboxamides, priority 2004, published 2008).

These molecules were tested against T1, hVR1 (Homo sapiens, UniProt Q8NER1) (assay: hVR1 FLIPR (Fluorometric Image Plate Reader) screening assay, IC50 determination). Details: agonist capsaicin, inhibition of increase in intracellular calcium.
T1 construct: expressed in transfected cells
Assay type: cell-based
Experimental: 1. hVR1 FLIPR (Fluorometric Image Plate Reader) screening assay
Transfected CHO cells, stably expessing hVR1 (15,000 cells/well) are seeded in 50 ul media in a black clear bottom 384 plate (Greiner) and grown in a humidified incubator (37° C., 2% CO2), 24-30 hours prior to experiment.
Subsequently, the media is removed from the cell plate by inversion and 2 μM Fluo-4 is added using a multidrop (Labsystems). Following the 40 minutes dye incubation in the dark at 37° C. and 2% CO2, the extracellular dye present is washed away using an EMBLA (Scatron), leaving the cells in 40 ul of assay buffer (1×HBSS, 10 mM D-Glucose, 1 mM CaCl2, 10 mM HEPES, 10×7.5% NaHCO3 and 2.5 mM Probenecid).
FLIPR Assay—IC50 Determination Protocol
For IC50 determinations the fluorescence is read using FLIPR filter 1 (em […]). A cellular baseline recording is taken for 30 seconds, followed by a 20 μl addition of 10, titrated half-log concentrations of the test compound, yielding cellular concentration ranging from 3 μM to 0.1 nM. Data is collected every 2 seconds for a further 5 minutes prior to the addition of a VR1 agonist solution: either 50 nM solution of capsaicin or MES (2-[N-morpholino]ethanesulfonic acid) buffer (pH 5.2), by the FLIPR pipettor. The FLIPR continues to collect data for a further 4 minutes. […] This consequently leading to a reduction in fluorescence signal and providing a reduced fluorescence reading, compared with no compound, buffer controls. Data is exported by the FLIPR program as a sum of fluorescence calculated under the curve upon the addition of capsaicin. […]
FLIPR (Fluorometric Image Plate Reader) screening assay with HEK T-REX hVR1. […]
For IC50 determinations the fluorescence is read using FLIPR filter 1 (em […]). […] This consequently leading to a reduction in fluorescence signal and providing a reduced fluorescence reading, compared with no compound, buffer controls. Data is exported by the FLIPR program as a sum of fluorescence calculated under the curie upon the addition of capsaicin. […]

T1 sequence (Q8NER1 whole entry): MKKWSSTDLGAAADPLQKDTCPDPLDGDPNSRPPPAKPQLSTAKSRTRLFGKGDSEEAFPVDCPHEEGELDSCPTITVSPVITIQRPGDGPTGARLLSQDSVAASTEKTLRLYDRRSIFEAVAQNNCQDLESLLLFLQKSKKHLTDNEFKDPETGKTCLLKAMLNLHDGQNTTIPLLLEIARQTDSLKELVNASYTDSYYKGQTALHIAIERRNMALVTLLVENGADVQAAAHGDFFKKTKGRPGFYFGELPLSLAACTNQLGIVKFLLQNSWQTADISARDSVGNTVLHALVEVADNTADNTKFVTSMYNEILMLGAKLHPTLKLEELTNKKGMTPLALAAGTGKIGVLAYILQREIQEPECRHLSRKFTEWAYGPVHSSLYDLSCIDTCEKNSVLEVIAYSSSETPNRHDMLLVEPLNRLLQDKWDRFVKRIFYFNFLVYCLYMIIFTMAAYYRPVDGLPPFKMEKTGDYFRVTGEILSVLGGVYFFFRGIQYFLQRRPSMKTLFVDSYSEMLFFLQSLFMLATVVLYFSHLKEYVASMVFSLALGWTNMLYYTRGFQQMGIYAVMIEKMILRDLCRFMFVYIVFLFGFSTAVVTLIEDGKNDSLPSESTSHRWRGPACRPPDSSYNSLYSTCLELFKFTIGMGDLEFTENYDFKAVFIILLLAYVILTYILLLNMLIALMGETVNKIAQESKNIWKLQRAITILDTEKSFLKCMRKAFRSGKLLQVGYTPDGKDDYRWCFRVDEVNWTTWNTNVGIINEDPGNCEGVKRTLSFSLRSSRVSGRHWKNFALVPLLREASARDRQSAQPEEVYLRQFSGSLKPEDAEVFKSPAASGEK

IC50 [nM] | SMILES
2780 | Cc1nc2cc(C(=O)NCc3ccc(C(F)(F)F)cc3)ccc2s1 [Example 7, 2-methyl-N-[4-trifluoromethylbenzyl]-1,3-benzothiazole-5 carboxamide]
1660 | Cc1nc2cc(C(=O)NCc3cccc(C(F)(F)F)c3)ccc2s1 [Example 8, 2-methyl-N-[3-trifluoromethylbenzyl]-1,3-benzothiazole-5-carboxamide]
226 | Cc1nc2cc(C(=O)Nc3ccc(C(C)(C)C)cc3)ccc2s1 [Example 1, N-4-tert-butylphenyl-2-methyl-1,3-benzothiazole-5-carboxamide]
